# Data taken from US20240342196A1, “TARGETING SELECT LIPID SIGNALING TO COUNTER TYPE 1 DIABETES (T1D)” (The UAB Research Foundation, priority 2023, published 2024).
# What was measured:
# EP4 [1] = target: T1, EP4 (Homo sapiens, UniProt P35408); settings: full antagonist; read-out: IC50 in the functional assay; cited from earlier work
# NK cells = settings: cited from earlier work
# human NK cells = settings: 0.01-10 μM, pretreatment 1 h, then 50 ng/ml IL-2, 0.33 μM PGE2, 18 hours; cited from earlier work
# [2] = tested on: human polymorphonuclear leukocyte (PMNL); settings: read-out: EC50, reduction of human PMNL transendothelial migration; cited from earlier work
# [3] = tested on: mouse model of peritonitis; settings: 10-100 ng dose; cited from earlier work
# HCA-7 colon cancer cells = settings: 10 μM; cited from earlier work
# [4] = tested on: LPS-activated human macrophages; settings: 100 nM; cited from earlier work
# young rats = settings: 10 mg/kg/day; cited from earlier work
# EP4 [5] = target: T1, EP4; settings: CHO cells expressing EP4; 10 μM; cited from earlier work
# EP4 [6] = target: T1, EP4; settings: HEK293 cells expressing EP4; cited from earlier work
# EP2 = EP2 (Homo sapiens, UniProt P43116); settings: cited from earlier work
# Chain of EP2 (P43116 whole entry): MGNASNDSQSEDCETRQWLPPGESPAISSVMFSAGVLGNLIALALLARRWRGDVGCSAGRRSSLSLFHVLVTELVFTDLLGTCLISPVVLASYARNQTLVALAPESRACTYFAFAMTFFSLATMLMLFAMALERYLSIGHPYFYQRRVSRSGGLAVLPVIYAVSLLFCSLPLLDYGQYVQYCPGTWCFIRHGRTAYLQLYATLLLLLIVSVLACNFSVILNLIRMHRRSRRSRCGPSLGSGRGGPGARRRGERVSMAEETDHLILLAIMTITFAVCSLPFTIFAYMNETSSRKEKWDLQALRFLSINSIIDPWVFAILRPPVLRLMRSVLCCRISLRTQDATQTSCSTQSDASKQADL
# EP1 = target: T2, EP1 (Homo sapiens, UniProt P34995); settings: cited from earlier work
# T2 sequence (P34995 1-402): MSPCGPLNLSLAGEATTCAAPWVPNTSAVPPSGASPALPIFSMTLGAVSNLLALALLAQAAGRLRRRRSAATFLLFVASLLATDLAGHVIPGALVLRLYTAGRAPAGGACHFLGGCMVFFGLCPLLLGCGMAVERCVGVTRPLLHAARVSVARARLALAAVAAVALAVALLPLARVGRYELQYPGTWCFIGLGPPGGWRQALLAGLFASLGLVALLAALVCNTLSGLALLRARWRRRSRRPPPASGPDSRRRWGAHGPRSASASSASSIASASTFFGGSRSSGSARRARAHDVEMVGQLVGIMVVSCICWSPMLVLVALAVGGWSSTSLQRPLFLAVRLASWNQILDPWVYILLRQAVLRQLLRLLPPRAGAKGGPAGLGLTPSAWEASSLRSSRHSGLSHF
# EP3 = target: T3, EP3 (Homo sapiens, UniProt P43115); settings: cited from earlier work
# T3 sequence (P43115 1-390): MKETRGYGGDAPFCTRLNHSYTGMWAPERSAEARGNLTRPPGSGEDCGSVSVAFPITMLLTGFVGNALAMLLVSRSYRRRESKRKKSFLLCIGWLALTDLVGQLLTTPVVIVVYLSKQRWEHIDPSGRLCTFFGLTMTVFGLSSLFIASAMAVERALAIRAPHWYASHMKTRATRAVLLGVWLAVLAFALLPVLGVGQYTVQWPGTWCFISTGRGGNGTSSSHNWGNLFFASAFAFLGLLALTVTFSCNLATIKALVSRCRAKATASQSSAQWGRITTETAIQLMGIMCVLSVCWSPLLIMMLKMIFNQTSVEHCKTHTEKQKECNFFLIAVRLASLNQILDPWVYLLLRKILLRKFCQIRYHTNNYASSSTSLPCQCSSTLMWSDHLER
# RAW 264.7 cells = settings: 10 μM; cited from earlier work
# NOD mice = experiment: T1D incidence in NOD mice; assay type: in vivo, mouse; settings: 30-week monitoring period, vehicle only 75%
# Protocol: To determine the impact of their signaling on T1D incidence, we treated NOD mice with either GP or EC alone starting at 4 weeks of age or in combination, where GP was started at 4 weeks of age and EC was introduced at 10 weeks of age. T1D incidence was recorded when blood glucose levels ≥[…] were measured in two consecutive weeks.
# Th1 helper cells = experiment: IFN-γ production by Th1 helper cells in the NOD; assay type: cell-based, mouse
# From the text: Type 1 diabetes (T1D) is a consequence of autoimmune destruction of pancreatic islet β-cells, but the involved processes remain unclear. […] The iPLA2β hydrolyzes membrane phospholipids at the sn-2 substituent to release a fatty acid (i.e., arachidonic acid), that is metabolized to generate proinflammatory (pi) lipids. We find that global reduction of iPLA2β reduces T1D incidence. Given the importance of T-lymphocytes in T1D development, we investigated the contribution of iPLA2β-derived lipids (iDLs) from T-lymphocytes with adoptive transfer and ex vitro functional approaches. The CD4^+/8^+ T-cells were purified from pre-diabetic female NOD and NOD.iPLA2β^+/− (HET) spleens. Different combinations of the cells (NOD4+8, NOD4+HET8, and NOD8+HET4) were then administered (i.p. 7.5×10^6: 2.5×10^6) to 4-week-old female immunodeficient NOD.scid mice. We find that scid recipients of a combination that included HET4 or HET8 had higher plasma insulin, decreased insulitis, and increased β-cell mass, compared to recipients of NOD4+NOD8.
# T1 sequence (P35408 whole entry): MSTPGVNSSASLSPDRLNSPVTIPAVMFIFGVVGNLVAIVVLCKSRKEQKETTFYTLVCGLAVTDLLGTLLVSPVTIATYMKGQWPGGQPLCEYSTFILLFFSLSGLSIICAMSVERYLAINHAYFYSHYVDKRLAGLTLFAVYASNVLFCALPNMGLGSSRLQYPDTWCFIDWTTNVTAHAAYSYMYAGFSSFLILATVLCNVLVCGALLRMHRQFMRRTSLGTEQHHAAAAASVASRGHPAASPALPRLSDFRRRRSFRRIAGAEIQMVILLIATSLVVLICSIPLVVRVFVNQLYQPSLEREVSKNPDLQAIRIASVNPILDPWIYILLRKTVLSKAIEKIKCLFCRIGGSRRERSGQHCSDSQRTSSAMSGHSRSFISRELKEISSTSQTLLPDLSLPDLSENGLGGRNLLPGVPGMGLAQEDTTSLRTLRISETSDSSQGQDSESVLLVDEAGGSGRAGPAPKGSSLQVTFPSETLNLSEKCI
smiles,measurement,setting,value
O=C(O)c1ccc(C2(NC(=O)c3cccc4ccn(Cc5ccc(C(F)(F)F)cc5)c34)CC2)cc1 [MF-766],IC50,EP4 [1],0.0014 µM
same,NK cell viability,NK cells,not affected
same,PGE2-suppressed IFN-γ secretion,human NK cells,reverses
CC/C=C\C[C@H](O)/C=C/C=C\C=C\C=C\[C@@H](O)[C@@H](O)C/C=C\CCC(=O)O [RvD1],EC50,[2],~0.03 µM
same,maximal inhibition of leukocyte infiltration,[3],~35%
CC/C=C\C[C@@H](O)/C=C/C=C\C=C\C=C\[C@@H](O)[C@@H](O)C/C=C\CCC(=O)O [17 (R)-epimer of RvD1],EC50,[2],~0.03 µM
same,maximal inhibition of leukocyte infiltration,[3],~35%
"CCCCc1nn(-c2ccccc2C(F)(F)F)c(=O)n1Cc1ccc(-c2ccccc2S(=O)(=O)NC(=O)c2sccc2C)cc1 [L-161,982]",PGE2-induced cell proliferation,HCA-7 colon cancer cells,blocks
same,anti-inflammatory action of PGE2,[4],reverses
same,PGE2-stimulated bone formation,young rats,suppresses
C/C=C/c1nnn(Cc2ccc(C(F)(F)F)cc2)c1C(=O)N[C@@H](C)c1ccc(C(=O)O)cc1 [EP4 receptor antagonist 1],ERK phosphorylation induced by PGE2,EP4 [5],reverses
same,PGE2-induced β-arrestin recruitment,EP4 [6],inhibits
same,IC50,EP2,> 10 µM
same,IC50,EP1,> 10 µM
same,IC50,EP3,> 10 µM
same,"GM-CSF-induced expression of II1b, II4ra, II6, Arg1, Cox2, and II10",RAW 264.7 cells,decreases
CCc1nc2c(C)nc(C)cc2n1-c1ccc(CCNC(=O)NS(=O)(=O)c2ccc(C)cc2)cc1 [grapiprant],T1D incidence,NOD mice,50%
same,IFN-γ production by Th1 helper cells,Th1 helper cells,significantly reduced
CC[C@H](C)C(=O)N1CCC(NC(=O)Nc2ccc(OC(F)(F)F)c(F)c2)CC1 [EC5026],T1D incidence,NOD mice,without effect
same,IFN-γ production by Th1 helper cells,Th1 helper cells,significantly reduced
